Reference: ChEMBL document CHEMBL4130363, “Synthesis and pharmacological evaluation of benzamide derivatives as potent and selective sigma-1 protein ligands” (Eur J Med Chem, 2017)

Experiments:
[1] = target: T1, 5-hydroxytryptamine receptor 1A (Homo sapiens) (UniProt P08908); assay: Antagonist activity at recombinant human 5-HT1A assessed as inhibition of agonist-induced cAMP levels at 10 uM by HTRF assay; format: functional
T1 sequence (whole entry): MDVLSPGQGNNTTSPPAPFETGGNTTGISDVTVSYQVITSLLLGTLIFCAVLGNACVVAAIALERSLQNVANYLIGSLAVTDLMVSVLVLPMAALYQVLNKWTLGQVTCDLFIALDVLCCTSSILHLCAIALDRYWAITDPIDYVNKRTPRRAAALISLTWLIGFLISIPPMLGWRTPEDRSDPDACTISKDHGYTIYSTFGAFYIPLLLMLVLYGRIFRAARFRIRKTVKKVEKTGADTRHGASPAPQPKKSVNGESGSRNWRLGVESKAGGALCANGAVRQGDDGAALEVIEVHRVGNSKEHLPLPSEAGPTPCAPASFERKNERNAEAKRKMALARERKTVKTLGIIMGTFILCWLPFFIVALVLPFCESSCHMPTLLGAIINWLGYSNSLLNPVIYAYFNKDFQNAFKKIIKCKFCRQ

[2] = target: 5-hydroxytryptamine receptor 1B (Homo sapiens) (UniProt P28222); assay: Agonist activity at recombinant human 5-HT1B at 10 uM by GTPgamma[35S] binding-based assay relative to agonist; format: functional
5-hydroxytryptamine receptor 1B (Homo sapiens), sequence (P28222 whole entry): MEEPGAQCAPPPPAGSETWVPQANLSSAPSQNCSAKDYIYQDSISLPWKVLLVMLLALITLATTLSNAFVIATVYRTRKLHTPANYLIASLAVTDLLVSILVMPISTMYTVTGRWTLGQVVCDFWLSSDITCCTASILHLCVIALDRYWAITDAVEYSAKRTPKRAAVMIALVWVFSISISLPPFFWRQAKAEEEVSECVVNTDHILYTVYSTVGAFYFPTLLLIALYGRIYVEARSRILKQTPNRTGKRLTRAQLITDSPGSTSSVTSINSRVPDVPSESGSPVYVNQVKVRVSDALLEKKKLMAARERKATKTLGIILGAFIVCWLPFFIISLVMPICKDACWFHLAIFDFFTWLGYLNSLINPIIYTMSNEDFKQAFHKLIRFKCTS

[3] = target: T2, 5-hydroxytryptamine receptor 2C (Homo sapiens) (UniProt P28335); assay: Antagonist activity at recombinant human 5-HT2C assessed as inhibition of agonist-induced effect at 10 uM by aequorin reporter based assay; format: functional
T2 sequence (whole entry): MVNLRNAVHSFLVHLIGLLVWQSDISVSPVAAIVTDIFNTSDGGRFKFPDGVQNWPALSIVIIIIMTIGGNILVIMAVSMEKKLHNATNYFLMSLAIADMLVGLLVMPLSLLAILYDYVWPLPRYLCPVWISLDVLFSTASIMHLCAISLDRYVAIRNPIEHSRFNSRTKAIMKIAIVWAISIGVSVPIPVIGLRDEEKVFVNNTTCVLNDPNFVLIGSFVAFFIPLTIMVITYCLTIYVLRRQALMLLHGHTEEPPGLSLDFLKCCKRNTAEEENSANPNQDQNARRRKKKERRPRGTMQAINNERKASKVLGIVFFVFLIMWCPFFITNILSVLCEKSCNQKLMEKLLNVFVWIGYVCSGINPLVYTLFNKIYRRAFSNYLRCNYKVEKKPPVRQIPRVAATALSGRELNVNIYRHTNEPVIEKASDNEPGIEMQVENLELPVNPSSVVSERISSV

[4] = target: T3, 5-hydroxytryptamine receptor 3A (Homo sapiens) (UniProt P46098); assay: Agonist activity at recombinant human 5-HT3 at 10 uM by aequorin reporter based assay relative to agonist
T3 sequence (whole entry): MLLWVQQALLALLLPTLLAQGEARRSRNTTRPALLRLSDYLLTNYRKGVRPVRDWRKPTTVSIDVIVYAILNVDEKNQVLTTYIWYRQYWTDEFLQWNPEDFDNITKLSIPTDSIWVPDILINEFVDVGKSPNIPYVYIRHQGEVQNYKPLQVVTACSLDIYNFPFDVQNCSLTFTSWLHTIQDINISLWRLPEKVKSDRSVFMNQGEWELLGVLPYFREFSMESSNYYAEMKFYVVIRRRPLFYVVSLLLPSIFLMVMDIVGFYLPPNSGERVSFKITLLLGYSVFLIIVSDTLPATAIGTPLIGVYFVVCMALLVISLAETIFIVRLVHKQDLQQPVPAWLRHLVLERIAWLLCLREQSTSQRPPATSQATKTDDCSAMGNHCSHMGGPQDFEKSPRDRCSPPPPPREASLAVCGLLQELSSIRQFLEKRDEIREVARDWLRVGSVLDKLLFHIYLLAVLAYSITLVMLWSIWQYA

[5] = target: 5-hydroxytryptamine receptor 6 (Homo sapiens) (UniProt P50406); assay: Antagonist activity at recombinant human 5-HT6R assessed as inhibition of agonist-induced cAMP induction at 10 uM by HTRF assay; format: functional
5-hydroxytryptamine receptor 6 (Homo sapiens), sequence (P50406 whole entry): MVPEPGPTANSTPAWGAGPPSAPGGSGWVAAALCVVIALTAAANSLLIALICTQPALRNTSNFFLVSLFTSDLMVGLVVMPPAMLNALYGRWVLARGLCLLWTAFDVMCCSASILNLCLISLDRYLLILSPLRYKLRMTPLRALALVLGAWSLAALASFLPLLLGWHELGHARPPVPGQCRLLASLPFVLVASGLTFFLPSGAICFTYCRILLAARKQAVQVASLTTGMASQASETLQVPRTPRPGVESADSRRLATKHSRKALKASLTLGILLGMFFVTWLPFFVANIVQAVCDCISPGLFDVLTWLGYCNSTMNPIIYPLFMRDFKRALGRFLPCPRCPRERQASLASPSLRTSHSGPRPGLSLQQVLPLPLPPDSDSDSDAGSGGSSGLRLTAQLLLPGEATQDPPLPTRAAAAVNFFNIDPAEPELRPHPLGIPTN

[6] = target: 5-hydroxytryptamine receptor 7 (Homo sapiens) (UniProt P34969); assay: Agonist activity at recombinant human 5-HT7R assessed as induction of cAMP levels at 10 uM by HTRF assay relative to agonist; format: functional
5-hydroxytryptamine receptor 7 (Homo sapiens), sequence (P34969 whole entry): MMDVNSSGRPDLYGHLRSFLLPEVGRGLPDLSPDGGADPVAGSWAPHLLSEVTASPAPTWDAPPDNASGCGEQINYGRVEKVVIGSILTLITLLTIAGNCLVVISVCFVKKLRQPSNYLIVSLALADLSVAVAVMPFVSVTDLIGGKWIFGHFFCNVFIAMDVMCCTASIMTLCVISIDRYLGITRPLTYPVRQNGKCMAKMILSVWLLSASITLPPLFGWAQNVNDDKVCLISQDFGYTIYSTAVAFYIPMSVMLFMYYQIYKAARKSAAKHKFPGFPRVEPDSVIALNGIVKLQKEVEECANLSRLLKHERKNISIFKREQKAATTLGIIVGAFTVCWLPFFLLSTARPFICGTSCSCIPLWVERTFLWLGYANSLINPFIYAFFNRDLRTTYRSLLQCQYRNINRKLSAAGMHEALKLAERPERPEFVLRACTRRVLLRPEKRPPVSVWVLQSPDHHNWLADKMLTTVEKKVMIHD

[7] = target: Adenosine receptor A2a (Homo sapiens) (UniProt P29274); assay: Agonist activity at recombinant human adenosine A2A receptor assessed as induction of cAMP levels at 10 uM by HTRF assay relative to agonist; format: functional
Adenosine receptor A2a (Homo sapiens), sequence (P29274 whole entry): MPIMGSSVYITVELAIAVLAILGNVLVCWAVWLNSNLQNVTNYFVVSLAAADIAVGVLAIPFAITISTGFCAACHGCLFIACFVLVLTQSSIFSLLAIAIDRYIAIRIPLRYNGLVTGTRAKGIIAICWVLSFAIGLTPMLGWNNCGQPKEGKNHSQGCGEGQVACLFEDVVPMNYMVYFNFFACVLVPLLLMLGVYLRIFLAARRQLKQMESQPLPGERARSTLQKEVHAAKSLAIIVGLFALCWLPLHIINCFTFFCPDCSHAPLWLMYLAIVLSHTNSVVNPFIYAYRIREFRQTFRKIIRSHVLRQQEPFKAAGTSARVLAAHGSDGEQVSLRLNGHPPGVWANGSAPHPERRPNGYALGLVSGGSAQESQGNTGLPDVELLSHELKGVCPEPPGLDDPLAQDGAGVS

[8] = target: Histamine H1 receptor (Homo sapiens) (UniProt P35367); assay: Agonist activity at recombinant human histamine H1 receptor at 10 uM by aequorin reporter based assay relative to agonist; format: functional
Histamine H1 receptor (Homo sapiens), sequence (P35367 whole entry): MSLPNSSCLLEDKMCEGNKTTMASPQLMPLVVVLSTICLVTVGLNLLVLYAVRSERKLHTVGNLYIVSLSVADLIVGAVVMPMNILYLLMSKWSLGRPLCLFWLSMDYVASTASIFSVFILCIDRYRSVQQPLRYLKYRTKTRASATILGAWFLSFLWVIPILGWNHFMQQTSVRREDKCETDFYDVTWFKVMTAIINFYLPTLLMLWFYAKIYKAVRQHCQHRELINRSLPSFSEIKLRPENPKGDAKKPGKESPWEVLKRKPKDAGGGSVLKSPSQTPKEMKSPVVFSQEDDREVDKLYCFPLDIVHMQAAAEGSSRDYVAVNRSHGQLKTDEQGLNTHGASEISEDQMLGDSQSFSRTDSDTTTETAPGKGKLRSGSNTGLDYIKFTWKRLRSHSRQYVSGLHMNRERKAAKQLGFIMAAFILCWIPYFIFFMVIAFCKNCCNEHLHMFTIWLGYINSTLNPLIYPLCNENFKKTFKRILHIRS

[9] = target: T4, Muscarinic acetylcholine receptor M4 (Homo sapiens) (UniProt P08173); assay: Antagonist activity at human muscarinic M4 receptor assessed as inhibition of agonist-induced effect at 10 uM by GTPgamma[35S] binding-based assay; format: functional
T4 sequence (whole entry): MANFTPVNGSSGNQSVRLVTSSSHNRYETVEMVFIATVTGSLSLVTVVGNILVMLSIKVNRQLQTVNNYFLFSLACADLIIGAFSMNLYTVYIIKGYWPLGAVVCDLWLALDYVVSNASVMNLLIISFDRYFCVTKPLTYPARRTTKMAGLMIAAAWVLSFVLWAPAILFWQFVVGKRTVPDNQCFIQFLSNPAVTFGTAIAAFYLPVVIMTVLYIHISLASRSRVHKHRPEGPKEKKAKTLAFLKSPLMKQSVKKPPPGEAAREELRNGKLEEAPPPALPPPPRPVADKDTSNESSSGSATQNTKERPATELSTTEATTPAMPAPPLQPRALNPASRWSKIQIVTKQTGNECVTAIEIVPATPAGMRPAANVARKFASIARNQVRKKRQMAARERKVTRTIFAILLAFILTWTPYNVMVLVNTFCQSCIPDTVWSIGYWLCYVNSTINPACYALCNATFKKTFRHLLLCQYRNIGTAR

[10] = target: T5, Substance-K receptor (Homo sapiens) (UniProt P21452); assay: Agonist activity at recombinant human NK2R assessed at 10 uM by aequorin reporter based assay relative to agonist; format: functional
T5 sequence (whole entry): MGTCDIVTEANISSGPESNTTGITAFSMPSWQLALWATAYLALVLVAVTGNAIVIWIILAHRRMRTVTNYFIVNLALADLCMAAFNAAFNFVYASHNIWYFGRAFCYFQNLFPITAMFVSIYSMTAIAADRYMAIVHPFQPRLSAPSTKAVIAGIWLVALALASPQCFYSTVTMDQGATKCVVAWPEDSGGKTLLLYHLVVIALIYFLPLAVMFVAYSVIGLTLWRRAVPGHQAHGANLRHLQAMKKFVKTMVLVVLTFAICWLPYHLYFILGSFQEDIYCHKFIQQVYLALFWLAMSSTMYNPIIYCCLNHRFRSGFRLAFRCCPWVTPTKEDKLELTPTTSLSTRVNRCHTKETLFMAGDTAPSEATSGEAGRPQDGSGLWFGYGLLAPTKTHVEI

SMILES | inhibition [1] | Activity [2] | inhibition [3] | Activity [4] | inhibition [5] | Activity [6] | Activity [7] | Activity [8] | inhibition [9] | Activity [10]
CN(CCCNC(=O)c1ccc(Cl)cc1)CCc1ccccc1 | 17% | 1% | 95% | -1% | 3% | 130% | -6% | 12% | 18% | 0%
CN(CCNC(=O)c1ccc([N+](=O)[O-])cc1)Cc1ccccc1 | 20% | -10% | 80% | 0% | 3% | 26% | -12% | 0% | 26% | 0%
COc1cccc(C(=O)NCCCN(C)Cc2ccccc2)c1 | 18% | -12% | 36% | 0% | -1% | -5% | 5% | 14% | 21% | 0%
CN(CCCNC(=O)c1cccc(Br)c1)Cc1ccccc1 | 7% | 1% | 54% | 0% | -2% | 21% | -25% | 35% | 33% | 1%
CN(CCNC(=O)c1ccc(C#N)cc1)Cc1ccccc1 | 16% | -12% | 34% | 0% | -2% | 2% | -8% | 0% | 25% | 0%

Next, values leading:

inhibition [1] | Activity [2] | inhibition [3] | Activity [4] | inhibition [5] | Activity [6] | Activity [7] | Activity [8] | inhibition [9] | Activity [10] | SMILES
1% | -1% | 24% | -1% | 1% | 33% | -22% | 0% | 23% | 0% | CN(CCCNC(=O)c1ccc(C(F)(F)F)cc1)Cc1ccccc1
-1% | 7% | 43% | 2% | -6% | 19% | -3% | 1% | 19% | 0% | CN(CCCNC(=O)c1ccc(Cl)cc1)Cc1ccccc1
3% | 4% | 92% | 0% | -3% | 46% | -22% | 0% | 13% | 1% | CN(CCNC(=O)c1ccc(Cl)cc1)Cc1ccccc1
-6% | 55% | 94% | -1% | 1% | 25% | -19% | 0% | 33% | 0% | CCCc1ccc(C(=O)NCCCN(C)Cc2ccccc2)cc1
-6% | 7% | 11% | 0% | -4% | 33% | -11% | 0% | -7% | 0% | CN(CCCNC(=O)c1ccc([N+](=O)[O-])cc1)Cc1ccccc1
5% | 7% | 33% | 0% | 0% | -1% | -13% | 0% | 25% | 0% | COc1ccc(C(=O)NCCCN(C)Cc2ccccc2)cc1
-5% | 10% | 34% | 1% | -1% | 9% | -7% | 1% | 20% | 0% | CN(CCCNC(=O)c1ccc(Br)cc1)Cc1ccccc1
